From patent US6455268B1, “Hydrolytic enzyme substrates and assay method” (Iconix Pharmaceuticals Inc., priority 1999, dated 2002) come the findings set out here.

Molecules are shown by their SMILES.

Series [1] concerns the target T1, β-glucuronidase (GUS) (Escherichia coli, UniProt P05804).
T1 construct: purchased Sigma Chemicals, St. Louis, Mo
In words: in vitro hydrolysis with β-glucuronidase, fluorimeter excitation and emission spectra. It is filed as biochemical, E. coli. How it is done:
A fluorimetery cuvette was prepared by adding 3 μL of 0.5 mM 7CC-FDG in DMSO (Compound F), to 3 mL of 50 mM Hepes buffer, pH 7.0, with 1 mM each CaCl2 and MgSO4. Fluorescent excitation and emission spectra of the sample were recorded using a Jobin-Yvon-SPEX Instruments Fluormax-2 fluorimeter under the following conditions: excitation at 300-500 nm with emission recorded at 515 or 530 nm (FIG. 4, scan A and B respectively); excitation at 350 nm and emission recorded at 425-650 nm (FIG. 4, scan C); excitation at 406 nm and emission recorded at 425-530 nm (FIG. 4, scan D); and excitation at 488 nm with emission recorded at 500-650 nm (FIG. 4, scan E). […] The ratio computed is the emission at 450 nm when the exciting light was of 350 nm or 406 nm divided by the emission at 515 nm when the exciting light was of 488 nm.

Series [2] can be described thus: control samples with OPAE replaced by PBS (no enzyme), non-enzymatic hydrolysis. It is filed as physicochemical. Conditions: PBS pH 7.0, no enzyme. As to the method:
(§1) Ninety-six well microtiter plates were prepared containing duplicate samples, each sample containing 4-(5-chloro-6-hydroxycoumarinamido)butyl-5-carboxamidofluorescein diacetate (“Compound 11”, 2 mM, 2 μL) in DMSO with phosphate buffered saline (PBS, 200 μL, pH 7.0). To each well was added orange peel acetylesterase (OPAE, Sigma, St. Louis, Mo., 5 μL, 39 U/mL) as a suspension in (NH4)2SO4 (2.5 M) and sodium oxalate (0.1 M). A set of control samples was prepared in which the OPAE was replaced with PBS (no enzyme). […] The plate was read prior to OPAE addition, at time 0, and at 5, 10, 30, 60, and 150 minutes after addition. Each reading was taken at three wavelength pairs using a Molecular Devices fmax fluorescent plate reader: excite 485/emission 530 (to measure fluorescein fluorescence); excite 350/emission 530 (to measure FRET fluorescence); and excite […] (to measure coumarin fluorescence).

The subject of series [3] is orange peel acetylesterase (OPAE). Put plainly: in vitro hydrolysis with orange peel acetylesterase, fluorescence/FRET plate reading. It is filed as biochemical. As to the method: as §1
A control set of experiments was preformed as above, but substituting a mixture of equal molar amounts of 5-carboxyfluorescein diacetate (5-CFDA, Calbiochem) and 6-chloro-7-hydroxycoumarin methyl ester. This mixture was non-fluorescent at 530 nm prior to OPAE addition and was fluorescent at 460 nm. […] Furthermore, in this unlinked mixture case, the ratio of 530 nm to 460 nm only changed from 0.13 to 0.7; in contrast to the ratio change for the compound above, from 0.13 to 13.5.

T1 sequence (P05804 whole entry): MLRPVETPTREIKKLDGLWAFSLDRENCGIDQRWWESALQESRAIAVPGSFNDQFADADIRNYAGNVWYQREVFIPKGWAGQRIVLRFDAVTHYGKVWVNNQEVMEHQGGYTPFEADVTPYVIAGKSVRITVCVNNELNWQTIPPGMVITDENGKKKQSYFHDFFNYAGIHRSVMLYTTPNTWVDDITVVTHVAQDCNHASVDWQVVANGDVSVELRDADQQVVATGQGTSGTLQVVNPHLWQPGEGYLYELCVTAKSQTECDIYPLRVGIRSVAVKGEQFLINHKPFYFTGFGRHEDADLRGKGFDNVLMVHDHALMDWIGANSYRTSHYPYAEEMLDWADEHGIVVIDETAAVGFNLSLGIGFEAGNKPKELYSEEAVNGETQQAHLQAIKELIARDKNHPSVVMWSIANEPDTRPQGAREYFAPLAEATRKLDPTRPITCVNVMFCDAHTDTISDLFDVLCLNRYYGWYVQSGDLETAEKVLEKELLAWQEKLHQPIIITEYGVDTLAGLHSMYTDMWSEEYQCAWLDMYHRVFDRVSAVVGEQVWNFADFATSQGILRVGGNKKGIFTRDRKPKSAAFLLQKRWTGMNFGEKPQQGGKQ

On to `O=C(O)CCC(NC(=O)Nc1ccc2c(c1)C(=O)OC21c2ccc(OC3OC(C(=O)O)C(O)C(O)C3O)cc2Oc2cc(OC3OC(C(=O)O)C(O)C(O)C3O)ccc21)C(=O)NCCCCNC(=O)c1cc2cc(Cl)c(O)cc2oc1=O` (centres unmarked) [Compound 7CC-FDG], for which, in series [1] (72 Units GUS, 50 mM Hepes pH 7.0), the “cleavage of the substrate by β-glucuronidase” value is reported as “can be cleaved by β-glucuronidase readily”. In addition, in series [1] (excitation at 350 nm and 488 nm, respectively), the “dynamic range of emission ratio 450 nm/515 nm” value is “about 23 fold”. For the same molecule, the “dynamic range of emission ratio 450/515” value in series [1] (excitation at 406 nm and 488 nm) is given as “about 50 fold”. Further, the “quenching of the coumarin moiety fluorescence in the completely cleaved product” value in series [1] (scan D (excitation 406 nm), 60 min. versus 0 min. time point) is listed as “more than 50%”.
Consider `CC(=O)Oc1ccc2c(c1)Oc1cc(OC(C)=O)ccc1C21OC(=O)c2cc(C(=O)NCCCCNC(=O)c3cc4c(Cl)c(O)ccc4oc3=O)ccc21` [Compound 11, 4-(5-chloro-6-hydroxycoumarinamido)butyl-5-carboxamidofluorescein diacetate], for which the non-enzymatic hydrolysis result in series [2] was “very low rates of non-enzymatic hydrolysis”. In addition, in series [3] (after OPAE hydrolysis (0.94 U/mL, read up to 150 minutes), excitation 350 nm, PBS pH 7.0), the “ratio of 530 nm to 460 nm emission, end of change” value is listed as 13.5. Also, in series [3] (in the presence of OPAE), the “change of coumarin fluorescence (460 nm) after OPAE addition” value was “decrease in fluorescence”. Besides, in series [3] (prior to OPAE hydrolysis, excitation 350 nm, PBS pH 7.0), the “ratio of 530 nm to 460 nm emission, start of change” value amounted to 0.13.
